The source of these data is US20240109877A1, “PYRIMIDINES FOR DEGRADING BRUTON'S TYROSINE KINASE” (AbbVie Inc., priority 2022, published 2024).

Assay [1] concerns the target His-tagged Cereblon/DDB1 complex (Homo sapiens (Human), UniProt Q96SW2). The experiment in a line: Cereblon Binding Assay (AlphaLISA Human Cereblon Binding Kit, competition). As to conditions: 10 μM top dose, biotin-labeled ligand competition; read-out: CRBN IC50. How it is done:
Cereblon binding was measured in vitro using an AlphaLISA® Human Cereblon Binding Kit (PerkinElmer, Waltham, MA) according to the manufacturer's protocol (“Alpha” refers to Amplified Luminescent Proximity Homogeneous Assay). In this assay, donor beads and acceptor beads come into proximity through ligand binding to CRBN protein. Excitation of the donor beads provokes the release of singlet oxygen that triggers a cascade of energy transfer reactions to the acceptor beads, resulting in a sharp peak in light emission at 615 nm.
Specifically, nickel chelate acceptor beads (PerkinElmer AL108M) were used to capture a 6XHIS-tagged CRBN protein, and streptavidin-coated donor beads (PerkinElmer 6760002) were used to capture 50 nM biotinylated ligand. Each well included the following: sample or control; HIS-tagged CRBN protein; biotinylated ligand; nickel chelate acceptor beads; and streptavidin donor beads.
Competition Assay: Test compounds in 100% dimethyl sulfoxide were plated onto white, low volume 384 well plates (PerkinElmer Proxiplate 384 plus # 6008289) using an Labcyte Echo acoustic dispenser, in an 11-point dose curve and 3-fold dilution scheme. […] Plates were incubated for 30 minutes at room temperature.
Detection: 10 μL detection reagents were added in low light conditions containing nickel chelate acceptor beads and streptavidin donor beads (Perkin Elmer 6760002), resulting in a final concentration 20 ng/ml. Plates were incubated 1 hour and read on a PerkinElmerTM Envision™ plate reader (680 nm excitation and […] settings). The IC50 of each compound was determined by calculating percent inhibition from no drug and no protein controls, and the Ki of each compound was calculated using the Cheng-Prusoff transformation. From the IC50 values were determined. The IC50 values are reported in Table 2 in the CRBN IC50 (nM) column.
(In Alpha technology, singlet oxygen from a donor bead excites a nearby acceptor bead.)

Assay [2] addresses BTK in mouse bone marrow (Mus musculus (Mouse), UniProt P35991). The assay is described as follows: Mouse Bone Marrow Assay (MSD ELISA of BTK degradation in mouse bone marrow). Conditions: female C57BL/6J mice, single dose of Dose A, bone marrow collected after 24 hours, % remaining BTK in vehicle versus treated samples. The assay is classed as in vivo. How it is done:
Female C57BL/6J mice (Jackson Laboratories) were used for this study. Compounds or vehicle/control were prepped with EtOH; PEG-400; Phosal 53 MCT (10:30:60, v/v). Four mice were tested per compound or vehicle/control. On Day 1, mice were administered a single dose of Dose A. On Day 2 (after 24 hours), tissue (bone marrow) was collected from one hind leg per mouse.
An MSD (Meso Scale Discovery) ELISA (enzyme-linked immunosorbent assay) based assay was used to determine BTK degradation in mouse bone marrow. The following materials and equipment were used: 10% NP40 solution (nonionic polyoxyethylene surfactant, ThermoFisher, cat no. 28324); protease inhibitor mini tablet (Roche, cat no. 05 892 970 001); PhosphoSTOP™ tablet (Roche, cat no. 04 906 837 001); Pierce™ BCA Protein Assay Kit (Thermofisher, Cat No. 23225); Precellys® 2 mL lysing tube with 2.8 mm beads (VWR, cat no. 10032-756); Bertin Precellys® 24/Cryolys ® cooling system; 96-well MSD streptavidin pre-coated plates (MSD, cat no. L15SA-1); MSD Blocker A (MSD, cat no. R93BA-4); capture antibody, biotinylated BTK mAb (BD Biosciences, cat no. 624008; custom order); primary detection antibody, BTK RpAb (rabbit polyclonal antibody, CST, cat no. 8547S, D3H5 clone); secondary detection antibody, anti-Rabbit-Sulfo-Tag (MSD, cat no. R32AB-1); read Buffer, 4× (MSD, cat no. R92TC-1); recombinant BTK protein (Thermofisher, cat no. PR5442A); MSD Tris Wash Buffer (10×) (MSD, cat no. R61TX-1); PBS (phosphate-buffered saline); deionized water (diH2O); Lysis Buffer [0.2% NP40 in PBS+Protease Inhibitor tablet (1 tablet/10 mL)+PhosphoSTOP tablet (1 tablet/10 mL)]; 3% MSD Blocker A [MSD Blocker A+450 mL diH2O+50 mL]; and 10× MSD Tris Wash Buffer.
Lysis buffer [(PBS+0.2% NP40+PI (protease inhibitor)+PhosphoSTOP)]was prepared and put on ice until it was fully cold. Ice cold lysis buffer […] was added to each Precellys® tube containing beads and bone marrow sample. Sample tubes were transferred into Precellys® machine and homogenized using 5000 rpm -2×20 seconds. The sample lysates were centrifuged at 14,000 rpm for 20 minutes at 4° C. after homogenizing.
The protein concentration was determined using Pierce™ BCA Protein Assay Kit following manufacturer's recommended protocol. The protein normalized working solution was prepared, using 30 μg protein per sample lysate for assay.
A 300 ng/ml working stock solution of recombinant BTK protein in lysis buffer was prepared, and the sample was serially diluted at 3-fold dilution (10-point assay, highest concentration was 300 ng/mL and lowest concentration was 0.015 ng/mL)
MSD plate coating: Coating antibody (biotinylated-BTK mAb) stock solution was prepared at 1 μg/mL in PBS buffer. 50 μL/well capture antibody (Biotinylated BTK mAb) solution was added, and the plates were shaken gently at ambient temperature for two hours. The plates were washed 3 times with 1× MSD Tris Wash Buffer in a plate washer (300 μL/well), and the plates were blocked with 3% MSD Blocker A (150 μL/well). The plates were incubated for an additional 1-2 hours at ambient temperature with gentle shaking. The plates were washed 3 times with 1× MSD wash buffer using plate washer. Bone marrow lysates (30 μg) at a final volume of 50 μL/well were added into the plates. The serially diluted standard samples were added to the same plates at a final volume of 50 μL/well. The plates were incubated overnight at 4° C. with gentle shaking.
The plates were washed three times with 1× MSD wash buffer (prepared from 10× concentration buffer) using plate washer. Primary detection antibody at 50 μL/well was added (BTK RpAb; 1:1000 dilution in 1% MSD Blocker A). The plates were incubated for two hours at ambient temperature with gentle shaking. The plates were washed three times with 1× MSD wash buffer using plate washer. Anti-Rabbit-SULFO-TAG secondary antibodies (50 μl/well) were added, 1:500 diluted in 1% MSD Blocker A, and the plates were incubated for one to two hours at ambient temperature. […]

A word on the IC50: it is the concentration needed to halve the response being measured. Regarding `Cc1cc(-c2cc(Nc3ccc(N4CCN(CCc5ccc(N6CCC(=O)NC6=O)cc5)C[C@@H]4C)cn3)ncn2)ccc1[C@@H](C)NC(=O)c1nc(C(C)(C)C)no1` [Example 1, 3-tert-butyl-N-[(1R)-1-{4-[6-({5-[(2S)-4-{2-[4-(2,4-dioxo-1,3-diazinan-1-yl)phenyl]ethyl}-2-methylpiperazin-1-yl]pyridin-2-yl}amino)pyrimidin-4-yl]-2-methylphenyl}ethyl]-1,2,4-oxadiazole-5-carboxamide], the half-maximal inhibitory concentration (IC50) in assay [1] stood at 1260 nM. In addition, the “Mouse Bone Marrow (%), % remaining BTK” value in assay [2] was determined as 11%.
The matching figures for `Cc1cc(-c2cc(Nc3ccc(N4CCN(CCc5ccc(N6CCC(=O)NC6=O)cc5)C[C@H]4C)cn3)ncn2)ccc1[C@@H](C)NC(=O)c1nc(C(C)(C)C)no1` [Example 2, 3-tert-butyl-N-[(1R)-1-{4-[6-({5-[(2R)-4-{2-[4-(2,4-dioxo-1,3-diazinan-1-yl)phenyl]ethyl}-2-methylpiperazin-1-yl]pyridin-2-yl}amino)pyrimidin-4-yl]-2-methylphenyl}ethyl]-1,2,4-oxadiazole-5-carboxamide]: 749 nM and 12%.
For `Cc1cc(-c2cc(Nc3ccc(N4CCN(CCc5ccc(N6CCC(=O)NC6=O)cc5)CC4)cn3)ncn2)ccc1[C@@H](C)NC(=O)c1nc(C(C)(C)C)no1` [Example 3, 3-tert-butyl-N-{(1R)-1-[4-(6-{[5-(4-{2-[4-(2,4-dioxo-1,3-diazinan-1-yl)phenyl]ethyl}piperazin-1-yl)pyridin-2-yl]amino}pyrimidin-4-yl)-2-methylphenyl]ethyl}-1,2,4-oxadiazole-5-carboxamide], in that order: 9570 nM and 22%.
The matching figures for `Cc1cc(-c2cc(Nc3ccc(N4CCN(CCc5ccc(N6CCC(=O)NC6=O)c(F)c5)C[C@@H]4C)cn3)ncn2)ccc1[C@@H](C)NC(=O)c1nc(C(C)(C)C)no1` [Example 4, 3-tert-butyl-N-[(1R)-1-{4-[6-({5-[(2S)-4-{2-[4-(2,4-dioxo-1,3-diazinan-1-yl)-3-fluorophenyl]ethyl}-2-methylpiperazin-1-yl]pyridin-2-yl}amino)pyrimidin-4-yl]-2-methylphenyl}ethyl]-1,2,4-oxadiazole-5-carboxamide]: no less than 10000 nM and 13%.
`Cc1cc(-c2cc(Nc3ccc(N4CCN(CCc5ccc(N6CCC(=O)NC6=O)c(F)c5)C[C@H]4C)cn3)ncn2)ccc1[C@@H](C)NC(=O)c1nc(C(C)(C)C)no1` [Example 5, 3-tert-butyl-N-[(1R)-1-{4-[6-({5-[(2R)-4-{2-[4-(2,4-dioxo-1,3-diazinan-1-yl)-3-fluorophenyl]ethyl}-2-methylpiperazin-1-yl]pyridin-2-yl}amino)pyrimidin-4-yl]-2-methylphenyl}ethyl]-1,2,4-oxadiazole-5-carboxamide]: the IC50 in assay [1] worked out at 648 nM. Moreover, the “Mouse Bone Marrow (%), % remaining BTK” value in assay [2] stood at 12%.
Consider `CC[C@H]1CN(CCc2ccc(N3CCC(=O)NC3=O)cc2)CCN1c1ccc(Nc2cc(-c3ccc([C@@H](C)NC(=O)c4nc(C(C)(C)C)no4)c(C)c3)ncn2)nc1` [Example 6, 3-tert-butyl-N-[(1R)-1-{4-[6-({5-[(2S)-4-{2-[4-(2,4-dioxo-1,3-diazinan-1-yl)phenyl]ethyl}-2-ethylpiperazin-1-yl]pyridin-2-yl}amino)pyrimidin-4-yl]-2-methylphenyl}ethyl]-1,2,4-oxadiazole-5-carboxamide], for which the IC50 in assay [1] was 378 nM. Besides, in assay [2], the “Mouse Bone Marrow (%), % remaining BTK” value is 19%.
In the case of `CC[C@H]1CN(CCc2ccc(N3CCC(=O)NC3=O)c(F)c2)CCN1c1ccc(Nc2cc(-c3ccc([C@@H](C)NC(=O)c4nc(C(C)(C)C)no4)c(C)c3)ncn2)nc1` [Example 7, 3-tert-butyl-N-[(1R)-1-{4-[6-({5-[(2S)-4-{2-[4-(2,4-dioxo-1,3-diazinan-1-yl)-3-fluorophenyl]ethyl}-2-ethylpiperazin-1-yl]pyridin-2-yl}amino)pyrimidin-4-yl]-2-methylphenyl}ethyl]-1,2,4-oxadiazole-5-carboxamide], in assay [1], the IC50 was determined as 609 nM. The “Mouse Bone Marrow (%), % remaining BTK” value in assay [2] was 22%.
The matching figures for `CC[C@@H]1CN(CCc2ccc(N3CCC(=O)NC3=O)cc2)CCN1c1ccc(Nc2cc(-c3ccc([C@@H](C)NC(=O)c4nc(C(C)(C)C)no4)c(C)c3)ncn2)nc1` [Example 8, 3-tert-butyl-N-[(1R)-1-{4-[6-({5-[(2R)-4-{2-[4-(2,4-dioxo-1,3-diazinan-1-yl)phenyl]ethyl}-2-ethylpiperazin-1-yl]pyridin-2-yl}amino)pyrimidin-4-yl]-2-methylphenyl}ethyl]-1,2,4-oxadiazole-5-carboxamide]: 3380 nM and 30%.
Consider `Cc1cc(-c2cc(Nc3ccc(N4CCN(CCc5ccc(N6CCC(=O)NC6=O)cc5)CC4(C)C)cn3)ncn2)ccc1[C@@H](C)NC(=O)c1nc(C(C)(C)C)no1` [Example 9, 3-tert-butyl-N-{(1R)-1-[4-(6-{[5-(4-{2-[4-(2,4-dioxo-1,3-diazinan-1-yl)phenyl]ethyl}-2,2-dimethylpiperazin-1-yl)pyridin-2-yl]amino}pyrimidin-4-yl)-2-methylphenyl]ethyl}-1,2,4-oxadiazole-5-carboxamide], for which the IC50 in assay [1] stood at 658 nM. For the same molecule, in assay [2], the “Mouse Bone Marrow (%), % remaining BTK” value stood at 31%.
For the molecule `Cc1cc(-c2cc(Nc3ccc(N4CCN(CCc5ccc(N6CCC(=O)NC6=O)cc5)CC4)cn3)ncn2)c(F)cc1[C@@H](C)NC(=O)c1nc(C(C)(C)C)no1` [Example 12, 3-tert-butyl-N-{(1R)-1-[4-(6-{[5-(4-{2-[4-(2,4-dioxo-1,3-diazinan-1-yl)phenyl]ethyl}piperazin-1-yl)pyridin-2-yl]amino}pyrimidin-4-yl)-5-fluoro-2-methylphenyl]ethyl}-1,2,4-oxadiazole-5-carboxamide], in assay [1], the half-inhibitory concentration (IC50) stood at 2010 nM. In addition, the “Mouse Bone Marrow (%), % remaining BTK” value in assay [2] is on record as 17%.
